Source: the supplement of paper PMC11061612

How the values were obtained:
[1] = test system: CAMA-1 (Breast Carcinoma); assay: Bliss excess, mean over the matrix (fraction); higher = more synergy
How it was run: (§1)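 Cell lines in DMEM/F12 or RPMI with 10% FBS were plated in 1536-well plates, held 24 hours at 37°C, 5% CO2, then given two-drug dose matrices for 72 hours (DMSO typically 0.2%). Viability was read by CellTiter-Glo 2.0 luminescence and scaled as inhibition from 0 (vehicle wells) to 1 (blank wells). Combination Emax is the second-highest inhibition in the matrix; Bliss excess is observed combination effect minus expected EA + EB − EA·EB, EA and EB being single-agent effects.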

[2] = test system: L-540 (Hodgkin's Lymphoma); assay: as above
How it was run: as §1

[3] = test system: K-562 (Chronic Myelogenous Leukemia); assay: as above
How it was run: as §1

[4] = test system: SR (Other Blood Carcinomas); assay: as above
How it was run: as §1

[5] = test system: NCI-H1792 (Lung Adenocarcinoma); assay: as above
How it was run: as §1

ES8 (Ewing's Sarcoma) [6] = assay: as above
How it was run: as §1

[7] = test system: GR-ST (B-Lymphoblastic Leukemia); assay: as above
How it was run: as §1

WIL2-NS (Non-Cancerous) [8] = assay: as above
How it was run: as §1

NCI-H2818 (Mesothelioma) [9] = assay: as above
How it was run: as §1

[10] = test system: SW837 (Colorectal Carcinoma); assay: as above
How it was run: as §1

[11] = test system: MKN28 (Gastric Carcinoma); assay: as above
How it was run: as §1

[12] = test system: DND-41 (T-Lymphoblastic Leukemia); assay: as above
How it was run: as §1

WM-115 (Melanoma) [13] = assay: as above
How it was run: as §1

[14] = test system: BFTC-905 (Bladder Carcinoma); assay: as above
How it was run: as §1

ES1 (Ewing's Sarcoma) [15] = assay: as above
How it was run: as §1

[16] = test system: SW1417 (Colorectal Carcinoma); assay: as above
How it was run: as §1

[17] = test system: BL-41 (Burkitt's Lymphoma); assay: as above
How it was run: as §1

[18] = test system: CAMA-1 (Breast Carcinoma); assay: combination Emax (second highest fraction inhibited in the dose matrix, 72 h); higher = more inhibition; extreme values may be limits of the assay
How it was run: as §1

[19] = test system: L-540 (Hodgkin's Lymphoma); assay: as above
How it was run: as §1

[20] = test system: K-562 (Chronic Myelogenous Leukemia); assay: as above
How it was run: as §1

[21] = test system: SR (Other Blood Carcinomas); assay: as above
How it was run: as §1

[22] = test system: NCI-H1792 (Lung Adenocarcinoma); assay: as above
How it was run: as §1

ES8 (Ewing's Sarcoma) [23] = assay: as above
How it was run: as §1

[24] = test system: GR-ST (B-Lymphoblastic Leukemia); assay: as above
How it was run: as §1

WIL2-NS (Non-Cancerous) [25] = assay: as above
How it was run: as §1

NCI-H2818 (Mesothelioma) [26] = assay: as above
How it was run: as §1

[27] = test system: SW837 (Colorectal Carcinoma); assay: as above
How it was run: as §1

[28] = test system: MKN28 (Gastric Carcinoma); assay: as above
How it was run: as §1

[29] = test system: DND-41 (T-Lymphoblastic Leukemia); assay: as above
How it was run: as §1

WM-115 (Melanoma) [30] = assay: as above
How it was run: as §1

[31] = test system: BFTC-905 (Bladder Carcinoma); assay: as above
How it was run: as §1

ES1 (Ewing's Sarcoma) [32] = assay: as above
How it was run: as §1

[33] = test system: SW1417 (Colorectal Carcinoma); assay: as above
How it was run: as §1

[34] = test system: BL-41 (Burkitt's Lymphoma); assay: as above
How it was run: as §1
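For Bliss excess, mean over the matrix in this document: after 72 h of two-drug dosing.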

Row | SMILES | Bliss excess [1] | Bliss excess [2] | Bliss excess [3] | Bliss excess [4] | Bliss excess [5] | Bliss excess (ES8 (Ewing's Sarcoma) [6]) | Bliss excess [7] | Bliss excess (WIL2-NS (Non-Cancerous) [8]) | Bliss excess (NCI-H2818 (Mesothelioma) [9]) | Bliss excess [10] | Bliss excess [11] | Bliss excess [12] | Bliss excess (WM-115 (Melanoma) [13]) | Bliss excess [14] | Bliss excess (ES1 (Ewing's Sarcoma) [15]) | Bliss excess [16] | Bliss excess [17] | combination Emax [18] | combination Emax [19] | combination Emax [20] | combination Emax [21] | combination Emax [22] | combination Emax (ES8 (Ewing's Sarcoma) [23]) | combination Emax [24] | combination Emax (WIL2-NS (Non-Cancerous) [25]) | combination Emax (NCI-H2818 (Mesothelioma) [26]) | combination Emax [27] | combination Emax [28] | combination Emax [29] | combination Emax (WM-115 (Melanoma) [30]) | combination Emax [31] | combination Emax (ES1 (Ewing's Sarcoma) [32]) | combination Emax [33] | combination Emax [34]
1 | Cc1c2c(nn1C)CSCc1cc(n(C)n1)CSc1cc(c3ccccc3c1)OCCCc1c(C(=O)O)n(C)c3c-2c(Cl)ccc13 [AZD5991] + CS(=O)(=O)CCNCc1ccc(-c2ccc3ncnc(Nc4ccc(OCc5cccc(F)c5)c(Cl)c4)c3c2)o1 [Lapatinib] (first compound max 1 µM, 7x7, partner max 10 µM) | -0.0054 | 0.04 | 0.0139 | 0.0023 | 0.0446 | 0.109 | 0.0082 | -0.118 | -0.0282 | -0.0176 | -0.0112 | -0.016 | -0.0164 | 0.023 | -0.0151 | -0.0142 | -0.0004 | 0.791 | 0.996 | 0.52 | 0.927 | 0.453 | 0.763 | 0.955 | 0.27 | 0.277 | 0.303 | 0.41 | 0.792 | 0.32 | 0.407 | 0.9 | 0.192 | 1
2 | N#Cc1cnc(Nc2cc(NC[C@H]3CNCCO3)c(C(F)(F)F)cn2)cn1 [SRA737] + Nc1ccn([C@@H]2O[C@H](CO)[C@@H](O)C2(F)F)c(=O)n1 [Gemcitabine] (first compound max 10 µM, 7x7, partner max 0.3 µM) | 0.0294 | 0.0222 | 0.0559 | 0.0325 | 0.0436 | 0.0504 | 0.0024 | -0.0384 | 0.0002 | 0.121 | 0.032 | -0.0197 | -0.0214 | 0.0034 | 0.0419 | 0.0613 | -0.0522 | 0.455 | 0.962 | 0.933 | 1 | 0.922 | 1 | 0.871 | 0.983 | 0.473 | 0.75 | 0.575 | 0.908 | 0.501 | 0.868 | 1 | 0.685 | 1
3 | Cc1nc(-c2cn3c(n2)-c2ccc(-c4cnn(C(C)(C)C(N)=O)c4)cc2OCC3)n(C(C)C)n1 [Taselisib] + O=C(Nc1ccc2[nH]nc(-c3ccncc3)c2c1)[C@@H]1CCN(CC(=O)N2CCN(c3ccc(-c4ncccn4)cc3)CC2)C1 [SCH772984] (first compound max 10 µM, 7x7, partner max 5 µM) | 0.0216 | 0.0023 | 0.0488 | 0.177 | 0.0818 | 0.117 | -0.0418 | 0.106 | 0.0096 | 0.0556 | 0.0966 | 0.14 | 0.0394 | 0.172 | 0.0604 | 0.0781 | 0.0266 | 0.563 | 0.474 | 0.53 | 0.681 | 0.966 | 0.84 | 0.706 | 0.728 | 0.372 | 0.747 | 0.451 | 0.611 | 0.951 | 0.999 | 0.77 | 0.756 | 0.263
4 | C[C@@H](Oc1cc(-c2cnn(C3CCNCC3)c2)cnc1N)c1c(Cl)ccc(F)c1Cl [Crizotinib] + Cn1cnc2c(F)c(Nc3ccc(Br)cc3Cl)c(C(=O)NOCCO)cc21 [Selumetinib] (first compound max 10 µM, 7x7, partner max 10 µM) | -0.042 | -0.0703 | 0.0366 | -0.0195 | -0.022 | -0.0482 | -0.0439 | -0.026 | -0.0068 | -0.0422 | 0.016 | 0.0194 | -0.0547 | -0.0138 | -0.0239 | 0.0093 | -0.0265 | 0.156 | 0.553 | 0.947 | 1 | 0.917 | 0.921 | 0.972 | 0.485 | 0.329 | 0.562 | 0.516 | 0.971 | 0.476 | 0.912 | 0.843 | 0.608 | 1
